# Measurements reported in patent US9695155B2, “Herbicidal substituted pyrimidinyloxy benzene compounds” (E. I. DU PONT DE NEMOURS AND COMPANY, priority 2013, dated 2017).
# Tests used:
# giant foxtail [1] = test: Test A preemergence; format: in vivo, Setaria faberii; conditions: Setaria faberi, pre-emergence, 240 h
# How it was run: (§1)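 Scoring: eye-based comparison with untreated controls, 0 for no effect through 100 for complete control, at about day 10. Treatments: directed soil spray preemergence; foliar spray postemergence on 2–10 cm plants at the one- to two-leaf stage. Medium: loam soil with sand.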
# large (Lg) crabgrass [2] = test: Test A postemergence; format: in vivo, Digitaria sanguinalis; conditions: Digitaria sanguinalis, post-emergence, 240 h
# How it was run: as §1
# galium = test: Test C preemergence; format: in vivo, Galium aparine; conditions: Galium, pre-emergence
# How it was run: (§2)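 Rated visually on 0–100 (100 = complete control) after 13–15 days under glass. Treatments went onto freshly seeded loam/sand soil or onto emerged plants at the 1- to 4-leaf stage, using a surfactant-containing solvent formulation.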
# large (Lg) crabgrass [3] = test: Test C preemergence; format: in vivo, Digitaria sanguinalis; conditions: Digitaria sanguinalis, pre-emergence
# How it was run: as §2
# giant foxtail [4] = test: Test C preemergence; format: in vivo, Setaria faberii; conditions: Setaria faberi, pre-emergence
# How it was run: as §2
# johnsongrass [5] = test: Test C preemergence; format: in vivo, Sorghum halepense; conditions: Sorghum halepense, pre-emergence
# How it was run: as §2
# lambsquarters = test: Test C preemergence; format: in vivo, Chenopodium album; conditions: Chenopodium album, pre-emergence
# How it was run: as §2
# yellow nutsedge [6] = test: Test C preemergence; format: in vivo, Cyperus esculentus; conditions: Cyperus, pre-emergence
# How it was run: as §2
# giant foxtail [7] = test: Test C postemergence; format: in vivo, Setaria faberii; conditions: Setaria faberi, post-emergence
# How it was run: as §2
# johnsongrass [8] = test: Test C postemergence; format: in vivo, Sorghum halepense; conditions: Sorghum halepense, post-emergence
# How it was run: as §2
# yellow nutsedge [9] = test: Test C postemergence; format: in vivo, Cyperus esculentus; conditions: Cyperus, post-emergence
# How it was run: as §2
# soybean = test: Test C postemergence; format: in vivo, Glycine max; conditions: Glycine max, post-emergence
# How it was run: as §2
# waterhemp = test: Test C postemergence; format: in vivo, Amaranthus rudis; conditions: Amaranthus tuberculatus, post-emergence
# How it was run: as §2
# chickweed = test: Test C postemergence; format: in vivo, Stellaria media; conditions: Stellaria media, post-emergence
# How it was run: as §2
structure (smiles),measurement,setting,value
"N#Cc1cccc(Oc2ncc(Cl)cn2)c1-n1cc(C(F)(F)F)cn1 [Compound 58, 3-[(5-chloro-2-pyrimidinyl)oxy]-2-[4-(trifluoromethyl)-1H-pyrazol-1-yl]benzonitrile]",pest or weed control at 125 g/ha,"giant foxtail [1]; 125 g ai/ha, 0 to 100 scale where 0 is no effect and 100 is complete control, read-out: Plant response rating, Foxtail, Giant",100%
same,pest or weed control at 500 g/ha,"giant foxtail [1]; 500 g ai/ha, 0 to 100 scale, 0 no effect, 100 complete control, approx. 10 days, read-out: Foxtail, Giant plant response rating",100%
same,pest or weed control at 125 g/ha,"large (Lg) crabgrass [2]; 125 g ai/ha, 0 to 100 scale where 0 is no effect and 100 is complete control, read-out: Plant response rating, Crabgrass, Large",100%
same,pest or weed control at 500 g/ha,"large (Lg) crabgrass [2]; 500 g ai/ha, 0 to 100 scale, 0 no effect, 100 complete control, read-out: Plant response rating Crabgrass, Large",100%
same,pest or weed control at 62 g/ha,"galium; 62 g ai/ha, preemergence, scale 0 (no effect) to 100 (complete control), read-out: Galium plant response rating",100%
same,pest or weed control at 125 g/ha,"galium; 125 g ai/ha, preemergence, scale 0 (no effect) to 100 (complete control), read-out: Galium plant response rating",100%
same,pest or weed control at 250 g/ha,"galium; 250 g ai/ha, preemergence, scale 0 (no effect) to 100 (complete control), read-out: Galium plant response rating",100%
same,pest or weed control at 31 g/ha,"galium; Preemergence, 31 g ai/ha, scale 0 to 100, 0 no effect, 100 complete control, read-out: Plant response rating, Galium",100%
same,pest or weed control at 62 g/ha,"large (Lg) crabgrass [3]; 62 g ai/ha, preemergence, scale 0 (no effect) to 100 (complete control), read-out: Crabgrass, Large plant response rating",100%
same,pest or weed control at 125 g/ha,"large (Lg) crabgrass [3]; 125 g ai/ha, preemergence, scale 0 (no effect) to 100 (complete control), read-out: Crabgrass, Large plant response rating",100%
same,pest or weed control at 250 g/ha,"large (Lg) crabgrass [3]; 250 g ai/ha, preemergence, scale 0 (no effect) to 100 (complete control), read-out: Crabgrass, Large plant response rating",100%
same,pest or weed control at 31 g/ha,"large (Lg) crabgrass [3]; Preemergence, 31 g ai/ha, scale 0 to 100, 0 no effect, 100 complete control, read-out: Plant response rating, Crabgrass, Large",100%
same,pest or weed control at 62 g/ha,"giant foxtail [4]; 62 g ai/ha, preemergence, scale 0 (no effect) to 100 (complete control), read-out: Foxtail, Giant plant response rating",100%
same,pest or weed control at 125 g/ha,"giant foxtail [4]; 125 g ai/ha, preemergence, scale 0 (no effect) to 100 (complete control), read-out: Foxtail, Giant plant response rating",100%
same,pest or weed control at 250 g/ha,"giant foxtail [4]; 250 g ai/ha, preemergence, scale 0 (no effect) to 100 (complete control), read-out: Foxtail, Giant plant response rating",100%
same,pest or weed control at 31 g/ha,"giant foxtail [4]; Preemergence, 31 g ai/ha, scale 0 to 100, 0 no effect, 100 complete control, read-out: Plant response rating, Foxtail, Giant",100%
same,pest or weed control at 62 g/ha,"johnsongrass [5]; 62 g ai/ha, preemergence, scale 0 (no effect) to 100 (complete control), read-out: Johnsongrass plant response rating",100%
same,pest or weed control at 125 g/ha,"johnsongrass [5]; 125 g ai/ha, preemergence, scale 0 (no effect) to 100 (complete control), read-out: Johnsongrass plant response rating",100%
same,pest or weed control at 250 g/ha,"johnsongrass [5]; 250 g ai/ha, preemergence, scale 0 (no effect) to 100 (complete control), read-out: Johnsongrass plant response rating",100%
same,pest or weed control at 31 g/ha,"johnsongrass [5]; Preemergence, 31 g ai/ha, scale 0 to 100, 0 no effect, 100 complete control, read-out: Plant response rating, Johnsongrass",85%
same,pest or weed control at 62 g/ha,"lambsquarters; 62 g ai/ha, preemergence, scale 0 (no effect) to 100 (complete control), read-out: Lambsquarters plant response rating",100%
same,pest or weed control at 125 g/ha,"lambsquarters; 125 g ai/ha, preemergence, scale 0 (no effect) to 100 (complete control), read-out: Lambsquarters plant response rating",100%
same,pest or weed control at 250 g/ha,"lambsquarters; 250 g ai/ha, preemergence, scale 0 (no effect) to 100 (complete control), read-out: Lambsquarters plant response rating",100%
same,pest or weed control at 31 g/ha,"lambsquarters; Preemergence, 31 g ai/ha, scale 0 to 100, 0 no effect, 100 complete control, read-out: Plant response rating, Lambsquarters",100%
same,pest or weed control at 62 g/ha,"yellow nutsedge [6]; 62 g ai/ha, preemergence, scale 0 (no effect) to 100 (complete control), read-out: Nutsedge, Yellow plant response rating",85%
same,pest or weed control at 125 g/ha,"yellow nutsedge [6]; 125 g ai/ha, preemergence, scale 0 (no effect) to 100 (complete control), read-out: Nutsedge, Yellow plant response rating",90%
same,pest or weed control at 250 g/ha,"yellow nutsedge [6]; 250 g ai/ha, preemergence, scale 0 (no effect) to 100 (complete control), read-out: Nutsedge, Yellow plant response rating",95%
same,pest or weed control at 31 g/ha,"yellow nutsedge [6]; Preemergence, 31 g ai/ha, scale 0 to 100, 0 no effect, 100 complete control, read-out: Plant response rating, Nutsedge, Yellow",70%
same,pest or weed control at 125 g/ha,"giant foxtail [7]; 125 g ai/ha, postemergence, read-out: Plant response rating (0 to 100), Foxtail, Giant",80%
same,pest or weed control at 250 g/ha,"giant foxtail [7]; 250 g ai/ha, postemergence, read-out: Plant response rating (0 to 100), Foxtail, Giant",95%
same,pest or weed control at 31 g/ha,"giant foxtail [7]; Postemergence, 31 g ai/ha, scale 0 to 100 (0 no effect, 100 complete control), 13 to 15 days, read-out: Plant response rating, Foxtail, Giant",15%
same,pest or weed control at 62 g/ha,"giant foxtail [7]; Postemergence, 62 g ai/ha, scale 0 to 100 (0 no effect, 100 complete control), read-out: Plant response rating, Foxtail, Giant",40%
same,pest or weed control at 125 g/ha,"johnsongrass [8]; 125 g ai/ha, postemergence, read-out: Plant response rating (0 to 100), Johnsongrass",35%
same,pest or weed control at 250 g/ha,"johnsongrass [8]; 250 g ai/ha, postemergence, read-out: Plant response rating (0 to 100), Johnsongrass",85%
same,pest or weed control at 31 g/ha,"johnsongrass [8]; Postemergence, 31 g ai/ha, scale 0 to 100 (0 no effect, 100 complete control), 13 to 15 days, read-out: Plant response rating, Johnsongrass",15%
same,pest or weed control at 62 g/ha,"johnsongrass [8]; Postemergence, 62 g ai/ha, scale 0 to 100 (0 no effect, 100 complete control), read-out: Plant response rating, Johnsongrass",15%
same,pest or weed control at 125 g/ha,"yellow nutsedge [9]; 125 g ai/ha, postemergence, read-out: Plant response rating (0 to 100), Nutsedge, Yellow",15%
same,pest or weed control at 250 g/ha,"yellow nutsedge [9]; 250 g ai/ha, postemergence, read-out: Plant response rating (0 to 100), Nutsedge, Yellow",15%
same,pest or weed control at 31 g/ha,"yellow nutsedge [9]; Postemergence, 31 g ai/ha, scale 0 to 100 (0 no effect, 100 complete control), 13 to 15 days, read-out: Plant response rating, Nutsedge, Yellow",5%
same,pest or weed control at 62 g/ha,"yellow nutsedge [9]; Postemergence, 62 g ai/ha, scale 0 to 100 (0 no effect, 100 complete control), read-out: Plant response rating, Nutsedge, Yellow",5%
same,"Soybean plant response rating (crop injury, 0-100 scale) at 125 g/ha","soybean; 125 g ai/ha, postemergence, read-out: Plant response rating (0 to 100), Soybean",98%
same,"Soybean plant response rating (crop injury, 0-100 scale) at 250 g/ha","soybean; 250 g ai/ha, postemergence",98%
same,"Soybean plant response rating (crop injury, 0-100 scale) at 31 g/ha","soybean; Postemergence, 31 g ai/ha, scale 0 to 100 (0 no effect, 100 complete control), 13 to 15 days",95%
same,"Soybean plant response rating (crop injury, 0-100 scale) at 62 g/ha","soybean; Postemergence, 62 g ai/ha, scale 0 to 100 (0 no effect, 100 complete control)",95%
same,pest or weed control at 125 g/ha,"waterhemp; 125 g ai/ha, postemergence, read-out: Plant response rating (0 to 100), Waterhemp",90%
same,pest or weed control at 250 g/ha,"waterhemp; 250 g ai/ha, postemergence, read-out: Plant response rating (0 to 100), Waterhemp",100%
same,pest or weed control at 31 g/ha,"waterhemp; Postemergence, 31 g ai/ha, scale 0 to 100 (0 no effect, 100 complete control), 13 to 15 days, read-out: Plant response rating, Waterhemp",85%
same,pest or weed control at 62 g/ha,"waterhemp; Postemergence, 62 g ai/ha, scale 0 to 100 (0 no effect, 100 complete control), read-out: Plant response rating, Waterhemp",90%
same,pest or weed control at 125 g/ha,"chickweed; 125 g ai/ha, postemergence, read-out: Plant response rating (0 to 100), Chickweed",100%
same,pest or weed control at 250 g/ha,"chickweed; 250 g ai/ha, postemergence, read-out: Plant response rating (0 to 100), Chickweed",100%
same,pest or weed control at 31 g/ha,"chickweed; Postemergence, 31 g ai/ha, scale 0 to 100 (0 no effect, 100 complete control), 13 to 15 days, read-out: Plant response rating, Chickweed",95%
same,pest or weed control at 62 g/ha,"chickweed; Postemergence, 62 g ai/ha, scale 0 to 100 (0 no effect, 100 complete control), read-out: Plant response rating, Chickweed",95%
